According to ChEMBL document CHEMBL1124085, “Flavins as potential antimalarials. 1. 10-(Halophenyl)-3-methylflavins” (1988):

What was measured:
Assay type in all cases: functional
Mus musculus [1] = experiment: Parenteral antimalarial activity against Plasmodium vinckei in mice (Mus musculus) measured as increase in mean survival time at 10 mg/kg dose
Mus musculus [2] = experiment: Oral antimalarial activity against Plasmodium vinckei vinckei in mice (Mus musculus) measured as increase in mean survival time at 50 mg/kg dose
Mus musculus [3] = experiment: Oral antimalarial activity against Plasmodium vinckei vinckei in mice (Mus musculus) measured as increase in mean survival time at 75 mg/kg dose
Mus musculus [4] = experiment: Oral antimalarial activity against Plasmodium vinckei in mice (Mus musculus) measured as increase in mean survival time at 150 mg/kg dose
Mus musculus [5] = experiment: Parenteral antimalarial activity against Plasmodium vinckei vinckei in mice (Mus musculus) measured as increase in mean survival time at 25 mg/kg dose
Mus musculus [6] = experiment: Parenteral antimalarial activity against Plasmodium vinckei in mice (Mus musculus) measured as % cured and increase in MST (days) at 30 mg/kg dose
Mus musculus [7] = experiment: Parenteral antimalarial activity against Plasmodium vinckei in mice (Mus musculus) measured as increase in mean survival time at 15 mg/kg dose
Mus musculus [8] = experiment: Oral antimalarial activity against Plasmodium vinckei in mice (Mus musculus) measured as increase in mean survival time at 25 mg/kg dose
Mus musculus [9] = experiment: Oral antimalarial activity against Plasmodium vinckei vinckei in mice (Mus musculus) measured as % cured and increase in MST (days) at 100 mg/kg dose
Mus musculus [10] = experiment: Oral antimalarial activity against Plasmodium vinckei vinckei in mice (Mus musculus) measured as % cured and increase in MST (days) at 150 mg/kg dose
Mus musculus [11] = experiment: Oral antimalarial activity against Plasmodium vinckei vinckei in mice (Mus musculus) measured as % cured and increase in MST (days) at 50 mg/kg dose
Mus musculus [12] = experiment: Parenteral antimalarial activity against Plasmodium vinckei in mice (Mus musculus) measured as increase in mean survival time at 20 mg/kg dose
Mus musculus [13] = experiment: Oral antimalarial activity against Plasmodium vinckei in mice (Mus musculus) measured as increase in mean survival time at 100 mg/kg dose
Mus musculus [14] = experiment: Parenteral antimalarial activity against Plasmodium vinckei in mice (Mus musculus) measured as increase in mean survival time at 30 mg/kg dose
Mus musculus [15] = experiment: Oral antimalarial activity against Plasmodium vinckei in mice (Mus musculus) measured as % cured and increase in MST (days) at 75 mg/kg dose
Mus musculus [16] = experiment: Parenteral antimalarial activity against Plasmodium vinckei vinckei in mice (Mus musculus) measured as % cured and increase in MST (days) at 15 mg/kg dose
Mus musculus [17] = experiment: Parenteral antimalarial activity against Plasmodium vinckei in mice (Mus musculus) measured as % cured and increase in MST (days) at 20 mg/kg dose
Mus musculus [18] = experiment: Parenteral antimalarial activity against Plasmodium vinckei in mice (Mus musculus) measured as % cured and increase in MST (days) at 25 mg/kg dose
Mus musculus [19] = experiment: Oral antimalarial activity against Plasmodium vinckei in mice (Mus musculus) measured as % cured and increase in MST (days) at 25 mg/kg dose
Mus musculus [20] = experiment: Parenteral antimalarial activity against Plasmodium vinckei in mice (Mus musculus) measured as % cured and increase in MST (days) at 10 mg/kg dose
Mus musculus [21] = experiment: Oral antimalarial activity against Plasmodium vinckei in mice (Mus musculus) measured as % cured and increase in MST (days) at 75 mg/kg dose.
Mus musculus [22] = experiment: Parenteral antimalarial activity against Plasmodium vinckei in mice (Mus musculus) measured as increase in mean survival time at 10 mg/kg dose.
Mus musculus [23] = experiment: Parenteral antimalarial activity against Plasmodium vinckei in mice (Mus musculus) measured as increase in mean survival time at 15 mg/kg dose.
Mus musculus [24] = experiment: Oral antimalarial activity against Plasmodium vinckei vinckei in mice (Mus musculus) measured as % cured and increase in MST (days) at 100 mg/kg dose.
Mus musculus [25] = experiment: Parenteral antimalarial activity against Plasmodium vinckei in mice (Mus musculus) measured as % cured and increase in MST (days) at 15 mg/kg dose.
Mus musculus [26] = experiment: Parenteral antimalarial activity against Plasmodium vinckei vinckei in mice (Mus musculus) measured as % cured and increase in MST (days) at 25 mg/kg dose.
Mus musculus [27] = experiment: Oral antimalarial activity against Plasmodium vinckei in mice (Mus musculus) measured as % cured and increase in MST (days) at 50 mg/kg dose.
Mus musculus [28] = experiment: Oral antimalarial activity against Plasmodium vinckei in mice (Mus musculus) measured as increase in mean survival time at 25 mg/kg dose.
Mus musculus [29] = experiment: Parenteral antimalarial activity against Plasmodium vinckei vinckei in mice (Mus musculus) measured as % cured and increase in MST (days) at 10 mg/kg dose.
Mus musculus [30] = experiment: Oral antimalarial activity against Plasmodium vinckei in mice (Mus musculus) measured as % cured and increase in MST (days) at 25 mg/kg dose.
Mus musculus [31] = experiment: Parenteral antimalarial activity against Plasmodium vinckei vinckei in mice (Mus musculus) measured as increase in mean survival time at 30 mg/kg dose.
Mus musculus [32] = experiment: Oral antimalarial activity against Plasmodium vinckei vinckei in mice (Mus musculus) measured as increase in mean survival time at 100 mg/kg dose.
Mus musculus [33] = experiment: Oral antimalarial activity against Plasmodium vinckei vinckei in mice (Mus musculus) measured as % cured and increase in MST (days) at 150 mg/kg dose.
Mus musculus [34] = experiment: Parenteral antimalarial activity against Plasmodium vinckei vinckei in mice (Mus musculus) measured as % cured and increase in MST (days) at 20 mg/kg dose.
Mus musculus [35] = experiment: Parenteral antimalarial activity against Plasmodium vinckei vinckei in mice (Mus musculus) measured as increase in mean survival time at 25 mg/kg dose.
Mus musculus [36] = experiment: Oral antimalarial activity against Plasmodium vinckei vinckei in mice (Mus musculus) measured as increase in mean survival time at 75 mg/kg dose.
Mus musculus [37] = experiment: Oral antimalarial activity against Plasmodium vinckei in mice (Mus musculus) measured as increase in mean survival time at 150 mg/kg dose.
Mus musculus [38] = experiment: Parenteral antimalarial activity against Plasmodium vinckei vinckei in mice (Mus musculus) measured as % cured and increase in MST (days) at 30 mg/kg dose.
Mus musculus [39] = experiment: Parenteral antimalarial activity against Plasmodium vinckei vinckei in mice (Mus musculus) measured as increase in mean survival time at 20 mg/kg dose.
Mus musculus [40] = experiment: Oral antimalarial activity against Plasmodium vinckei vinckei in mice (Mus musculus) measured as increase in mean survival time at 50 mg/kg dose.

Question: Which MST (Mus musculus [1]) does the source give for `Cn1c(=O)nc2n(-c3ccc(F)cc3)c3ccccc3nc-2c1=O` here?
Answer: The MST was 0 days.

Question: And the MST (Mus musculus [2])?
Answer: The MST was 0.8 days.

Question: And the MST (Mus musculus [3])?
Answer: Its MST is 0.6 days.

Question: What about the MST (Mus musculus [4]) of the same molecule?
Answer: The MST was 2.3 days.

Question: And the MST (Mus musculus [5])?
Answer: The MST was 0.8 days.

Question: And the Cured (Mus musculus [6])?
Answer: The Cured was 0%.

Question: And the MST (Mus musculus [7])?
Answer: Its MST is 0.8 days.

Question: And the MST (Mus musculus [8])?
Answer: The MST was 0 days.

Question: And the Cured (Mus musculus [9])?
Answer: The Cured was 0%.

Question: What about the Cured (Mus musculus [10]) of the same molecule?
Answer: The Cured was 20%.

Question: What about the Cured (Mus musculus [11]) of the same molecule?
Answer: Its Cured is 0%.

Question: And the MST (Mus musculus [12])?
Answer: Its MST is 0.5 days.

Question: What about the MST (Mus musculus [13]) of the same molecule?
Answer: The MST was 1 days.

Question: And the MST (Mus musculus [14])?
Answer: Its MST is 0.2 days.

Question: What about the Cured (Mus musculus [15]) of the same molecule?
Answer: The Cured was 0%.

Question: What about the Cured (Mus musculus [16]) of the same molecule?
Answer: Its Cured is 0%.

Question: What about the Cured (Mus musculus [17]) of the same molecule?
Answer: Its Cured is 20%.

Question: What about the Cured (Mus musculus [18]) of the same molecule?
Answer: The Cured was 0%.

Question: What about the Cured (Mus musculus [19]) of the same molecule?
Answer: Its Cured is 0%.

Question: What about the Cured (Mus musculus [20]) of the same molecule?
Answer: The Cured was 0%.

Question: Which results are given for `Cn1c(=O)nc2n(-c3ccc(Cl)cc3Cl)c3ccccc3nc-2c1=O`?
Answer: Cured (Mus musculus [21]): 40%; MST (Mus musculus [22]): 1.7 days; MST (Mus musculus [23]): 0.5 days; Cured (Mus musculus [24]): 80%; Cured (Mus musculus [25]): 0%; Cured (Mus musculus [26]): 0%; Cured (Mus musculus [27]): 0%; MST (Mus musculus [28]): 0 days; Cured (Mus musculus [29]): 0%; Cured (Mus musculus [30]): 0%; MST (Mus musculus [31]): -1 days; MST (Mus musculus [32]): 1.5 days; Cured (Mus musculus [33]): 60%; Cured (Mus musculus [34]): 0%; MST (Mus musculus [35]): -1.2 days; MST (Mus musculus [36]): 1 days; MST (Mus musculus [37]): 1.5 days; Cured (Mus musculus [38]): 0%; MST (Mus musculus [39]): 0 days; MST (Mus musculus [40]): 1.3 days

Question: With `Cn1c(=O)nc2n(-c3cccc(Cl)c3)c3ccccc3nc-2c1=O` as the molecule, how does the MST (Mus musculus [2]) read?
Answer: Its MST is 0 days.

Question: And the MST (Mus musculus [3])?
Answer: The MST was 4.3 days.

Question: What about the MST (Mus musculus [4]) of the same molecule?
Answer: The MST was 2.5 days.

Question: And the MST (Mus musculus [5])?
Answer: Its MST is 0 days.

Question: And the Cured (Mus musculus [6])?
Answer: The Cured was 0%.

Question: What about the MST (Mus musculus [7]) of the same molecule?
Answer: Its MST is 0 days.

Question: What about the Cured (Mus musculus [9]) of the same molecule?
Answer: The Cured was 0%.

Question: What about the Cured (Mus musculus [10]) of the same molecule?
Answer: The Cured was 60%.

Question: And the Cured (Mus musculus [11])?
Answer: Its Cured is 0%.

Question: And the MST (Mus musculus [12])?
Answer: The MST was 0.2 days.

Question: What about the MST (Mus musculus [13]) of the same molecule?
Answer: The MST was 1.2 days.

Question: And the MST (Mus musculus [14])?
Answer: The MST was 0 days.

Question: And the Cured (Mus musculus [15])?
Answer: Its Cured is 20%.

Question: And the Cured (Mus musculus [16])?
Answer: Its Cured is 0%.

Question: And the Cured (Mus musculus [17])?
Answer: Its Cured is 0%.

Question: What about the Cured (Mus musculus [18]) of the same molecule?
Answer: The Cured was 0%.

Question: How did the Cured (Mus musculus [21]) turn out when `Cn1c(=O)nc2n(-c3cc(Cl)ccc3Cl)c3ccccc3nc-2c1=O` was run?
Answer: Its Cured is 0%.

Question: What about the MST (Mus musculus [22]) of the same molecule?
Answer: The MST was 0 days.

Question: And the MST (Mus musculus [23])?
Answer: The MST was 0 days.

Question: And the Cured (Mus musculus [24])?
Answer: The Cured was 0%.

Question: And the Cured (Mus musculus [25])?
Answer: Its Cured is 0%.

Question: What about the Cured (Mus musculus [26]) of the same molecule?
Answer: Its Cured is 0%.

Question: And the Cured (Mus musculus [27])?
Answer: Its Cured is 0%.

Question: And the MST (Mus musculus [28])?
Answer: The MST was 0 days.

Question: What about the Cured (Mus musculus [29]) of the same molecule?
Answer: Its Cured is 0%.

Question: What about the Cured (Mus musculus [30]) of the same molecule?
Answer: Its Cured is 0%.

Question: What about the MST (Mus musculus [31]) of the same molecule?
Answer: Its MST is 0 days.

Question: And the MST (Mus musculus [32])?
Answer: Its MST is 0 days.

Question: What about the Cured (Mus musculus [33]) of the same molecule?
Answer: The Cured was 0%.

Question: And the Cured (Mus musculus [34])?
Answer: Its Cured is 0%.

Question: And the MST (Mus musculus [35])?
Answer: Its MST is 0 days.

Question: And the MST (Mus musculus [36])?
Answer: Its MST is 0 days.

Question: What about the MST (Mus musculus [37]) of the same molecule?
Answer: Its MST is 0 days.

Question: And the Cured (Mus musculus [38])?
Answer: Its Cured is 0%.

Question: And the MST (Mus musculus [39])?
Answer: Its MST is 0 days.

Question: What about the MST (Mus musculus [40]) of the same molecule?
Answer: Its MST is 0 days.

Question: Which results are given for `Cn1c(=O)nc2n(-c3cccc(F)c3)c3ccccc3nc-2c1=O`?
Answer: Cured (Mus musculus [21]): 20%; MST (Mus musculus [22]): 0 days; MST (Mus musculus [23]): 0.2 days; Cured (Mus musculus [24]): 80%; Cured (Mus musculus [25]): 0%; MST (Mus musculus [8]): 0 days; Cured (Mus musculus [26]): 0%; Cured (Mus musculus [27]): 40%; Cured (Mus musculus [29]): 0%; Cured (Mus musculus [30]): 40%; MST (Mus musculus [31]): 2.2 days; MST (Mus musculus [32]): 0 days; Cured (Mus musculus [33]): 40%; Cured (Mus musculus [34]): 40%; MST (Mus musculus [35]): 2 days; MST (Mus musculus [36]): 2.5 days; MST (Mus musculus [37]): 0 days; Cured (Mus musculus [38]): 0%; MST (Mus musculus [39]): 1.7 days; MST (Mus musculus [40]): 0 days
